In ChEMBL document CHEMBL6087404, “Naphthoindole-2-carboxamides as a lipophilic chemotype of hetarene-anthraquinones potent against P-gp resistant tumor cells” (Eur J Med Chem, 2025):
The source made the active and inactive calls. The calls are words filed in the database; no cut-off is given here.

How the values were obtained:
K562 [1] = assay: Induction of apoptosis in human K562 cells assessed as late apoptotic cells at 1 uM incubated for 24 hrs by Annexin V-FITC/PI staining based flow cytometry (reference value: 2.5 %); format: functional
[2] = Drug uptake in lysosome of human HCT-116 cells at 3 uM incubated for 1 hr by LysoTracker Deep Red dye based confocal microscopy; format: ADME, subcellular; details: hct-116, 1 h
[3] = Drug uptake in nuclear membrane of human HCT-116 cells at 3 uM incubated for 1 hr by confocal microscopy; format: ADME, cell membranes; details: hct-116, 1 h
[4] = Antiproliferative activity against hFB-hTERT6 cells incubated for 72 hrs by MTT assay; format: toxicity, cell-based; details: human
K562/4 [5] = assay: Induction of apoptosis in human K562/4 cells assessed as early apoptotic cells at 1 uM incubated for 24 hrs by Annexin V-FITC/PI staining based flow cytometry (reference value: 1 %); format: functional
K562/4 [6] = assay: Induction of apoptosis in human K562/4 cells assessed as early apoptotic cells at 1 uM incubated for 48 hrs by Annexin V-FITC/PI staining based flow cytometry (reference value: 1 %); format: functional
K562/4 [7] = assay: Induction of apoptosis in human K562/4 cells assessed as viable cells at 1 uM incubated for 24 hrs by Annexin V-FITC/PI staining based flow cytometry (reference value: 86 %); format: functional; details: read-out: Activity
K562 [8] = assay: Induction of apoptosis in human K562 cells assessed as necrotic cells at 1 uM incubated for 24 hrs by Annexin V-FITC/PI staining based flow cytometry (reference value: 10.8 %); format: functional
A549 = assay: Antiproliferative activity against human A549 cells incubated for 72 hrs by MTT assay; format: functional, cell-based; details: A549, 72 h
K562 [9] = assay: Antiproliferative activity against human K562 cells incubated for 72 hrs by MTT assay; format: functional, cell-based; details: K562, 72 h
K562/4 [10] = assay: Induction of apoptosis in human K562/4 cells assessed as viable cells at 1 uM incubated for 24 hrs by Annexin V-FITC/PI staining based flow cytometry (reference value: 10.8 %); format: functional; details: read-out: Activity
K562/4 [11] = assay: Antiproliferative activity against human K562/4 cells incubated for 72 hrs by MTT assay; format: functional, cell-based; details: K562/4, 72 h
K562 [12] = assay: Induction of apoptosis in human K562 cells assessed as necrotic cells at 1 uM incubated for 48 hrs by Annexin V-FITC/PI staining based flow cytometry (reference value: 10.8 %); format: functional
DNA = assay: Binding affinity to pBR322 plasmid DNA (unknown origin) assessed as effect on electrophoretic mobility of DNA at 1 to 40 uM incubated for 30 mins; format: nucleic-acid assay; details: Escherichia coli, dose 1-40 µM
K562/4 [13] = assay: Induction of apoptosis in human K562/4 cells assessed as late apoptotic cells at 1 uM incubated for 48 hrs by Annexin V-FITC/PI staining based flow cytometry (reference value: 2.5 %); format: functional
[14] = Drug uptake in P-gp+ human K562/4 cells at 2 uM incubated for 3 to 120 hrs by flow cytometry; format: ADME, cell-based; details: k562/4, 2 µM, time 3-120 hrs
[15] = Drug uptake in human K562/4 cells assessed as fold increase at 2 uM incubated for 3 to 120 hrs by flow cytometry relative to LCTA-2640; format: ADME, cell-based; details: k562/4, 2 µM, time 3-120 hrs
[16] = Drug uptake in human K562i/S9 cells assessed as fold increase at 2 uM incubated for 3 to 120 hrs by flow cytometry relative to LCTA-2640; format: ADME, cell-based; details: k562i/s9, 2 µM, time 3-120 hrs
K562/4 [17] = assay: Effect on cell cycle distribution in human K562/4 cells assessed as cells with fragmented DNA at sub-G1 phase at 1 uM incubated for 72 hrs by PI staining based flow cytometry (reference value: 4 %); format: functional
[18] = Drug uptake in verapamil-treated human K562/4 cells at 2 uM incubated for 3 to 120 hrs by flow cytometry relative to wild-type culture; format: ADME, cell-based; details: k562/4, 2 µM, time 3-120 hrs
K562 [19] = assay: Effect on cell cycle distribution in human K562 cells assessed as cells with fragmented DNA at sub-G1 phase at 1 uM incubated for 24 hrs by PI staining based flow cytometry (reference value: 3 %); format: functional
[20] = Drug uptake in mitochondria of human HCT-116 cells at 3 uM incubated for 1 hr by MitoTracker Red FM dye based confocal microscopy; format: ADME; details: hct-116, 1 h
[21] = Drug uptake in P-gp+ human K562i/S9 cells at 2 uM incubated for 3 to 120 hrs by flow cytometry; format: ADME, cell-based; details: k562i/s9, 2 µM, time 3-120 hrs
[22] = Drug uptake in human HCT-116 cells at 3 uM incubated for 10 mins by confocal microscopy; format: ADME, cell-based; details: hct-116, 10 min
[23] = Drug uptake in P-gp+ human […] cells at 3 uM incubated for 10 mins by confocal microscopy; format: ADME, cell-based; details: k562/4, 10 min
K562/4 [24] = assay: Effect on cell cycle distribution in human K562/4 cells assessed as cells with fragmented DNA at sub-G1 phase at 0.75 uM incubated for 24 hrs by PI staining based flow cytometry (reference value: 4 %); format: functional
K562 [25] = assay: Induction of apoptosis in human K562 cells assessed as late apoptotic cells at 1 uM incubated for 48 hrs by Annexin V-FITC/PI staining based flow cytometry (reference value: 2.5 %); format: functional
K562 [26] = assay: Induction of apoptosis in human K562 cells assessed as viable cells at 1 uM incubated for 48 hrs by Annexin V-FITC/PI staining based flow cytometry (reference value: 85.9 %); format: functional; details: read-out: Activity
K562/4 [27] = assay: Effect on cell cycle distribution in human K562/4 cells assessed as cells with fragmented DNA at sub-G1 phase at 0.75 uM incubated for 72 hrs by PI staining based flow cytometry (reference value: 4 %); format: functional
K562/4 [28] = assay: Effect on cell cycle distribution in human K562/4 cells assessed as cells with fragmented DNA at sub-G1 phase at 1 uM incubated for 24 hrs by PI staining based flow cytometry (reference value: 4 %); format: functional
K562 [29] = assay: Effect on cell cycle distribution in human K562 cells assessed as cells with fragmented DNA at sub-G1 phase at 0.75 uM incubated for 72 hrs by PI staining based flow cytometry (reference value: 3 %); format: functional
K562/4 [30] = assay: Effect on cell cycle distribution in human K562/4 cells assessed as cells with fragmented DNA at sub-G1 phase at 0.75 uM incubated for 48 hrs by PI staining based flow cytometry (reference value: 4 %); format: functional
K562 [31] = assay: Induction of apoptosis in human K562 cells assessed as early apoptotic cells at 1 uM incubated for 24 hrs by Annexin V-FITC/PI staining based flow cytometry (reference value: 0.8 %); format: functional
[32] = Resistance index, ratio of IC50 for human K562/4 cells to IC50 for human K562 cells; format: functional

Question: Which Activity (K562 [1]) does the source give for `CS(=O)(=O)O.N[C@H]1CCN(C(=O)c2cc3c(O)c4c(c(O)c3[nH]2)C(=O)c2ccccc2C4=O)C1` here?
Answer: The Activity was 24.5%.

Question: What about the Drug uptake [2] of the same molecule?
Answer: The Drug uptake was “Active”.

Question: What about the Drug uptake [3] of the same molecule?
Answer: The Drug uptake was “Not_active”.

Question: What about the IC50 at 72 h [4] of the same molecule?
Answer: Its IC50 at 72 h is 4.2 µM.

Question: And the Activity (K562/4 [5])?
Answer: Its Activity is 0.6%.

Question: What about the Activity (K562/4 [6]) of the same molecule?
Answer: Its Activity is 0.1%.

Question: What about the viability at 1 µM (K562/4 [7]) of the same molecule?
Answer: Its viability at 1 µM is 30.1%.

Question: And the Activity (K562 [8])?
Answer: The Activity was 46.2%.

Question: What about the IC50 (A549) of the same molecule?
Answer: The IC50 was 7.7 µM.

Question: And the IC50 (K562 [9])?
Answer: Its IC50 is 500 nM.

Question: What about the viability at 1 µM (K562/4 [10]) of the same molecule?
Answer: The viability at 1 µM was 48.9%.

Question: And the IC50 (K562/4 [11])?
Answer: The IC50 was 1200 nM.

Question: And the Activity (K562 [12])?
Answer: The Activity was 43.7%.

Question: What about the Activity (DNA) of the same molecule?
Answer: The Activity was “inactive”.

Question: What about the Activity (K562/4 [13]) of the same molecule?
Answer: Its Activity is 17.5%.

Question: And the Drug uptake [14]?
Answer: The Drug uptake was “Active”.

Question: What about the “fold change (FC)” value [15] of the same molecule?
Answer: Its value is “<= 2”.

Question: What about the “fold change (FC)” value [16] of the same molecule?
Answer: Its value is “<= 2”.

Question: What about the Activity (K562/4 [17]) of the same molecule?
Answer: The Activity was 89%.

Question: What about the Drug uptake [18] of the same molecule?
Answer: The Drug uptake was 80%.

Question: What about the Activity (K562 [19]) of the same molecule?
Answer: Its Activity is 42%.

Question: And the Drug uptake [20]?
Answer: The Drug uptake was “Active”.

Question: And the Drug uptake [21]?
Answer: Its Drug uptake is “Active”.

Question: And the Drug uptake [22]?
Answer: The Drug uptake was “Active”.

Question: And the Drug uptake [23]?
Answer: Its Drug uptake is “Active”.

Question: And the Activity (K562/4 [24])?
Answer: The Activity was 8%.

Question: And the Activity (K562 [25])?
Answer: Its Activity is 43.8%.

Question: And the viability at 1 µM (K562 [26])?
Answer: Its viability at 1 µM is 11.9%.

Question: And the Activity (K562/4 [27])?
Answer: The Activity was 5%.

Question: What about the Activity (K562/4 [28]) of the same molecule?
Answer: Its Activity is 30%.

Question: And the Activity (K562 [29])?
Answer: Its Activity is 30%.

Question: And the Activity (K562/4 [30])?
Answer: The Activity was 6%.

Question: What about the Activity (K562 [31]) of the same molecule?
Answer: Its Activity is 0.2%.

Question: And the “Ratio IC50” value [32]?
Answer: The value was 2.4.
